Each structure is given as a SMILES string.

Assay [1] addresses T1, Prostaglandin G/H synthase 1 (Homo sapiens, UniProt P23219). The assay can be described thus: Inhibition of Prostaglandin G/H synthase 1 at 5 uM (Inactive).
The nature of assay [2]: animal or person. Particulars: Mus musculus, read-out: Inhibition.
Assay [3] in a line: animal or person. Particulars: Mus musculus, read-out: Inhibition. This is another data set of the same source.
Assay [4] has as its target Mitogen-activated protein kinase 1 (Homo sapiens) (UniProt P28482). The assay is described as follows: Inhibition of Mitogen-activated protein kinase 1 (ERK-2 enzyme) at 10 uM.
For assay [5], the target named is Proto-oncogene tyrosine-protein kinase Src (Homo sapiens) (UniProt P12931). The assay is described as follows: Inhibition of c-Src tyrosine kinase at 5 uM.
Sequence of Proto-oncogene tyrosine-protein kinase Src (Homo sapiens) (P12931 2-536 limits assumed): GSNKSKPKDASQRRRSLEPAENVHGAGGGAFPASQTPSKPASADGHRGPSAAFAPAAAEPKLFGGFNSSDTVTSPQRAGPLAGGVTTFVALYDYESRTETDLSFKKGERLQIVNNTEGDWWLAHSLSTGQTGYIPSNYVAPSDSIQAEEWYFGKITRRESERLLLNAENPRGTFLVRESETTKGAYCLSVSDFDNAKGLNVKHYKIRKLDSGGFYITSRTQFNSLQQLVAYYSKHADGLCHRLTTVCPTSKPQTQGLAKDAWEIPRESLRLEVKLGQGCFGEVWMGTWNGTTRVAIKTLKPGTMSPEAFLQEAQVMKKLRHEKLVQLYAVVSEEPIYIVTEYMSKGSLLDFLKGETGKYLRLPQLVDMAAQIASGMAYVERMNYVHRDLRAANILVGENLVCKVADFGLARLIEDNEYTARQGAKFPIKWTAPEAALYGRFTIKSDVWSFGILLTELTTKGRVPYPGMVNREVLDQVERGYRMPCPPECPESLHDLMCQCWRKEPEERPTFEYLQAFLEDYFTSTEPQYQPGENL
The target in assay [6] is cAMP-dependent protein kinase (PKA) (Homo sapiens) (UniProt P22694+P17612+P22612). The assay is described as follows: Inhibition of Protein kinase A at 5 uM. The class given is protein assay.
The subject of assay [7] is PBMC. The assay can be described thus: cells. To be noted: Homo sapiens.
Description: Inhibition of LPS-stimulated TH+NF-alphs production by human peripheral blood mononuclear cells (PBMCs)
The nature of assay [8]: Percent inhibition of LPS-stimulated TNF-alpha release in fasted BALB/cJ mice at 25 mg/kg. To be noted: Mus musculus. The class given is functional.
Assay [9] can be described thus: Percent inhibition of LPS-stimulated TNF-alpha release in fasted BALB/cJ mice at 10 mg/kg. The class given is functional. To be noted: Mus musculus.
Assay [10] has as its system PBMC. The assay is described as follows: cells. The assay is classed as functional, cell-based. Particulars: Homo sapiens.
In assay [11] the target is T1, Prostaglandin G/H synthase 1. The assay can be described thus: Inhibition of Prostaglandin G/H synthase 1 at 5 uM.

Sequence of Mitogen-activated protein kinase 1 (Homo sapiens) (P28482 whole entry): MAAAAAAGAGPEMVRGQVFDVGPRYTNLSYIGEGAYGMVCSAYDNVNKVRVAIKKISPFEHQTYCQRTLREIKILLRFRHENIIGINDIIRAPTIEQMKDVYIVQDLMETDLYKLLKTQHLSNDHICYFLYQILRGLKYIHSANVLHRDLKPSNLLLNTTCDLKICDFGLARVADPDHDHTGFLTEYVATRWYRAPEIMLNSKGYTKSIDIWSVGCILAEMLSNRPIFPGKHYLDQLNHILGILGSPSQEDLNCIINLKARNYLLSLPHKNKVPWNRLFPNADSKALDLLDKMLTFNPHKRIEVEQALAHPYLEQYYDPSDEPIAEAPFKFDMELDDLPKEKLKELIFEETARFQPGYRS
T1 sequence (P23219 whole entry): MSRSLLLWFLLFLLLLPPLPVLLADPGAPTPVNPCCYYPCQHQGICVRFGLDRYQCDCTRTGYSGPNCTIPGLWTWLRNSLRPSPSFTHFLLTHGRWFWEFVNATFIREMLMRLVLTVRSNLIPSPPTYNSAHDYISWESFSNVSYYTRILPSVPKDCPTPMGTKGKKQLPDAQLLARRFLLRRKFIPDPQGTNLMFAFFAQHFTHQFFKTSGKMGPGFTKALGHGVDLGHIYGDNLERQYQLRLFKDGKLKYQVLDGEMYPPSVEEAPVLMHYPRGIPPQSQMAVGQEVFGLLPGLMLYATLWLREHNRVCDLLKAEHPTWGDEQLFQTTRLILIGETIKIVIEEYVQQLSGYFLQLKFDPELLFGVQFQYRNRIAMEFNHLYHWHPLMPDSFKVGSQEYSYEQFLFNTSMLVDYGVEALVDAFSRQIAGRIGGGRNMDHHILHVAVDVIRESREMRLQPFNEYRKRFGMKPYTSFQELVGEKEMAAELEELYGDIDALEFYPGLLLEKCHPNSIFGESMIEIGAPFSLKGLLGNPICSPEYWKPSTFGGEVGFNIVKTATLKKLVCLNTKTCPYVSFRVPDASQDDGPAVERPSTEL

Consider `COc1cc(N)[nH]c2nc(-c3ccc(F)cc3)c(-c3ccncc3)c1-2`, for which the 50% inhibitory concentration (IC50) entry in assay [1] is given as “Not Active”. Besides, the inhibition in vivo at 25 mg/kg in the assay “animal or person [2]” came to 99%. The inhibition in vivo at 10 mg/kg in the assay “animal or person [3]” stood at 85%. Moreover, the inhibition is 23% in assay [4], 43% in assay [5] and 0% in assay [6].
In the assay with PBMC [7], `COc1cccc(COc2cc(N)[nH]c3nc(-c4ccc(F)cc4)c(-c4ccncc4)c2-3)c1` gave an IC50 of 1.5 nM. The inhibition in [5] came to 58%; in [6] it was 0%.
Take `CCCCOc1cc(N)[nH]c2nc(-c3ccc(F)cc3)c(-c3ccncc3)c1-2`: the IC50 result in [1] was “Not Active”; in the assay on PBMC [7], 4 nM. Moreover, the inhibition in vivo at 25 mg/kg in assay [8] was found to be 71%. Moreover, the inhibition in assay [5] worked out at 18%; in assay [6] it was 0%. Moreover, the inhibition in vivo at 10 mg/kg in assay [9] is 27%.
Take `Nc1ccc2c(-c3ccncc3)c(-c3ccc(F)cc3)[nH]c2n1`: the IC50 in the assay on PBMC [10] was 450 nM; in assay [1], “Not Active”; with PBMC [7], 37 nM. The molecule further returned an inhibition in vivo at 25 mg/kg in assay [8] of 98%. The inhibition in [4] was found to be 0%; in [5], 63%; in assay [6], 16%. Further, in [9], the inhibition in vivo at 10 mg/kg is 73%.
In the case of `C[S+]([O-])c1ccc(-c2nc(-c3ccncc3)c(-c3ccc(F)cc3)[nH]2)cc1` (stereo not drawn) [SB-203580], in assay [11], the IC50 was > 5 µM.
For `Nc1cc(OCCCc2ccccc2)c2c(-c3ccncc3)c(-c3ccc(F)cc3)[nH]c2n1`, in the assay with PBMC [7], the concentration for half-maximal inhibition (IC50) stood at 9 nM. The inhibition stood at 3% in [5] and 0% in assay [6].
For `Nc1cc(OCc2ccccc2)c2c(-c3ccncc3)c(-c3ccc(F)cc3)[nH]c2n1`, the IC50 entry in assay [1] is “Not Active”; in the assay on PBMC [7], 0.91 nM. In assay [8], the inhibition in vivo at 25 mg/kg stood at 86%. Further, the inhibition amounted to 19% in assay [5] and 0% in [6]. The molecule further came in with an inhibition in vivo at 10 mg/kg in assay [9] of 11%.
Regarding `C[S+]([O-])c1ccc(-c2nc(-c3ccc(F)cc3)c(-c3ccncc3)[nH]2)cc1` (stereo not drawn) [SB-203580], the inhibition in vivo at 25 mg/kg in [8] came to 83%. In addition, the inhibition in assay [4] was 22%; in assay [5] it was 54%; in assay [6] it was 0%. In assay [9], the inhibition in vivo at 10 mg/kg was 33%.

For orientation: IC50 means the concentration needed to halve the response being measured. Low values mean greater potency in that assay, high ones weaker potency in that assay. What is called inhibition is the share of the control response that was lost under treatment. Higher therefore signals a response far below the control.

The values are drawn from ChEMBL document CHEMBL1131612, “6-Amino-2-(4-fluorophenyl)-4-methoxy-3- (4-pyridyl)-1H-pyrrolo[2, 3-b]pyridine (RWJ 68354): a potent and selective p38 kinase inhibitor” (J Med Chem, 1998).
